Measured values published in PubChem BioAssay AID2060495 (Molecular Pharmacology Branch, DTP, NCI, 2025).

Tested on: 521955-158-R2-J5-PDC complex spheroid viability
Experiment: Anticancer human tumor 521955-158-R2-J5-PDC patient-derived pancreatic carcinoma cell line growth inhibition [GQUAD]
Settings: for IC50: curve of first compound; for viability, T/C: stronger effect = lower value
In short: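 Viability of tumor cells grown as complex spheroids with endothelial and stromal cells, exposed to drug combinations. Top concentration at or near clinical Cmax (else 10 microM), diluted in half-log increments.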

[1] = second compound 0.0316 µM, first compound 0.0316 µM
[2] = second compound 0.0316 µM, first compound 0.1 µM
[3] = second compound 0.0316 µM, first compound 0.316 µM
[4] = second compound 0.0316 µM, first compound 1 µM
[5] = second compound 0.0316 µM, first compound 3.16 µM
[6] = second compound 0.0316 µM, first compound 10 µM
[7] = second compound 0.1 µM, first compound 0.0316 µM
[8] = second compound 0.1 µM, first compound 0.1 µM
[9] = second compound 0.1 µM, first compound 0.316 µM
[10] = second compound 0.1 µM, first compound 1 µM
[11] = second compound 0.1 µM, first compound 3.16 µM
[12] = second compound 0.1 µM, first compound 10 µM
[13] = second compound 0.316 µM, first compound 0.0316 µM
[14] = second compound 0.316 µM, first compound 0.1 µM
[15] = second compound 0.316 µM, first compound 0.316 µM
[16] = second compound 0.316 µM, first compound 1 µM
[17] = second compound 0.316 µM, first compound 3.16 µM
[18] = second compound 0.316 µM, first compound 10 µM
[19] = second compound 1 µM, first compound 0.0316 µM
[20] = second compound 1 µM, first compound 0.1 µM
[21] = second compound 1 µM, first compound 0.316 µM
[22] = second compound 1 µM, first compound 1 µM
[23] = second compound 1 µM, first compound 3.16 µM
[24] = second compound 1 µM, first compound 10 µM
[25] = second compound 3.16 µM, first compound 0.0316 µM
[26] = second compound 3.16 µM, first compound 0.1 µM
[27] = second compound 3.16 µM, first compound 0.316 µM
[28] = second compound 3.16 µM, first compound 1 µM
[29] = second compound 3.16 µM, first compound 3.16 µM
[30] = second compound 3.16 µM, first compound 10 µM
[31] = second compound 10 µM, first compound 0.0316 µM
[32] = second compound 10 µM, first compound 0.1 µM
[33] = second compound 10 µM, first compound 0.316 µM
[34] = second compound 10 µM, first compound 1 µM
[35] = second compound 10 µM, first compound 3.16 µM
[36] = second compound 10 µM, first compound 10 µM
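Also: spheroids exposed to agents for one week before reading.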
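For viability, T/C in this document: 100% = DMSO vehicle control viability.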

CC(C)(O)C1CCC(Nc2ccc3ncc(-c4cccc(C(F)(F)F)c4)n3n2)CC1 (stereo not drawn) + Cc1[nH]c2ccc(F)cc2c1-c1nc2c3cccnc3c3ncccc3c2[nH]1
IC50 (second compound 0.0316 µM): 2050 nM | IC50 (second compound 0.1 µM): 1990 nM | IC50 (second compound 0.316 µM): 2010 nM | IC50 (second compound 1 µM): 1960 nM | IC50 (second compound 3.16 µM): 1930 nM | IC50 (second compound 10 µM): 1890 nM | viability, T/C [1]: 93.5% | viability, T/C [2]: 109% | viability, T/C [3]: 101% | viability, T/C [4]: 125% | viability, T/C [5]: 15.5% | viability, T/C [6]: 10.8% | viability, T/C [7]: 102% | viability, T/C [8]: 107% | viability, T/C [9]: 103% | viability, T/C [10]: 117% | viability, T/C [11]: 11.3% | viability, T/C [12]: 11.7% | viability, T/C [13]: 107% | viability, T/C [14]: 100% | viability, T/C [15]: 102% | viability, T/C [16]: 116% | viability, T/C [17]: 12.6% | viability, T/C [18]: 14.7% | viability, T/C [19]: 95.8% | viability, T/C [20]: 94.3% | viability, T/C [21]: 102% | viability, T/C [22]: 121% | viability, T/C [23]: 11.7% | viability, T/C [24]: 11.9% | viability, T/C [25]: 91.2% | viability, T/C [26]: 79.3% | viability, T/C [27]: 92.9% | viability, T/C [28]: 113% | viability, T/C [29]: 16.5% | viability, T/C [30]: 10.7% | viability, T/C [31]: 83.2% | viability, T/C [32]: 87.8% | viability, T/C [33]: 102% | viability, T/C [34]: 126% | viability, T/C [35]: 9.89% | viability, T/C [36]: 9.4%

CC(=O)O[C@H]1C(=O)[C@@]2(C)[C@H]([C@H](OC(=O)c3ccccc3)[C@]3(O)C[C@H](OC(=O)[C@H](O)[C@@H](NC(=O)c4ccccc4)c4ccccc4)C(C)=C1C3(C)C)[C@]1(OC(C)=O)CO[C@@H]1C[C@@H]2O + Cc1[nH]c2ccc(F)cc2c1-c1nc2c3cccnc3c3ncccc3c2[nH]1
IC50 (second compound 0.0316 µM): < 31.6 nM | IC50 (second compound 0.1 µM): < 31.6 nM | IC50 (second compound 0.316 µM): < 31.6 nM | IC50 (second compound 1 µM): < 31.6 nM | IC50 (second compound 3.16 µM): < 31.6 nM | IC50 (second compound 10 µM): < 31.6 nM | viability, T/C [1]: 46.1% | viability, T/C [2]: 34.1% | viability, T/C [3]: 31% | viability, T/C [4]: 30.8% | viability, T/C [5]: 30.8% | viability, T/C [6]: 25.6% | viability, T/C [7]: 49% | viability, T/C [8]: 43.9% | viability, T/C [9]: 39% | viability, T/C [10]: 31.2% | viability, T/C [11]: 35.7% | viability, T/C [12]: 29.9% | viability, T/C [13]: 47.6% | viability, T/C [14]: 37.5% | viability, T/C [15]: 31.4% | viability, T/C [16]: 27.5% | viability, T/C [17]: 32.1% | viability, T/C [18]: 24.2% | viability, T/C [19]: 43.6% | viability, T/C [20]: 41.5% | viability, T/C [21]: 43.4% | viability, T/C [22]: 31.5% | viability, T/C [23]: 19.8% | viability, T/C [24]: 33.5% | viability, T/C [25]: 38.7% | viability, T/C [26]: 36.7% | viability, T/C [27]: 30.6% | viability, T/C [28]: 32.5% | viability, T/C [29]: 34.9% | viability, T/C [30]: 30.2% | viability, T/C [31]: 41.3% | viability, T/C [32]: 41.9% | viability, T/C [33]: 32.8% | viability, T/C [34]: 40.2% | viability, T/C [35]: 37.7% | viability, T/C [36]: 39%

COc1cccc2c1C(=O)c1c(O)c3c(c(O)c1C2=O)CC(O)(C(=O)CO)CC3OC1CC(N)C(O)C(C)O1 (stereo not drawn) + Cc1[nH]c2ccc(F)cc2c1-c1nc2c3cccnc3c3ncccc3c2[nH]1
IC50 (second compound 0.0316 µM): 150 nM | IC50 (second compound 0.1 µM): 193 nM | IC50 (second compound 0.316 µM): 188 nM | IC50 (second compound 1 µM): 130 nM | IC50 (second compound 3.16 µM): 156 nM | IC50 (second compound 10 µM): 182 nM | viability, T/C [1]: 102% | viability, T/C [2]: 60.3% | viability, T/C [3]: 31.3% | viability, T/C [4]: 13.2% | viability, T/C [5]: 5.72% | viability, T/C [6]: 0.72% | viability, T/C [7]: 92.3% | viability, T/C [8]: 72.2% | viability, T/C [9]: 32.9% | viability, T/C [10]: 11% | viability, T/C [11]: 5.83% | viability, T/C [12]: 0.27% | viability, T/C [13]: 88.4% | viability, T/C [14]: 72.9% | viability, T/C [15]: 30% | viability, T/C [16]: 13.7% | viability, T/C [17]: 3.99% | viability, T/C [18]: 0.46% | viability, T/C [19]: 90.1% | viability, T/C [20]: 57.7% | viability, T/C [21]: 25.4% | viability, T/C [22]: 14.1% | viability, T/C [23]: 5.66% | viability, T/C [24]: 0.41% | viability, T/C [25]: 85.7% | viability, T/C [26]: 65.6% | viability, T/C [27]: 24.5% | viability, T/C [28]: 17.2% | viability, T/C [29]: 4.87% | viability, T/C [30]: 0.33% | viability, T/C [31]: 97.5% | viability, T/C [32]: 73.6% | viability, T/C [33]: 27.5% | viability, T/C [34]: 12.1% | viability, T/C [35]: 9.02% | viability, T/C [36]: 0.29%

C=CCn1c(=O)c2cnc(Nc3ccc(N4CCN(C)CC4)cc3)nc2n1-c1cccc(C(C)(C)O)n1 + Cc1[nH]c2ccc(F)cc2c1-c1nc2c3cccnc3c3ncccc3c2[nH]1
IC50 (second compound 0.0316 µM): 217 nM | IC50 (second compound 0.1 µM): 182 nM | IC50 (second compound 0.316 µM): 177 nM | IC50 (second compound 1 µM): 175 nM | IC50 (second compound 3.16 µM): 159 nM | IC50 (second compound 10 µM): 192 nM | viability, T/C [1]: 103% | viability, T/C [2]: 84.9% | viability, T/C [3]: 33.1% | viability, T/C [4]: 14.6% | viability, T/C [5]: 12.6% | viability, T/C [6]: 12.1% | viability, T/C [7]: 95.1% | viability, T/C [8]: 75.8% | viability, T/C [9]: 25.8% | viability, T/C [10]: 15.8% | viability, T/C [11]: 11.1% | viability, T/C [12]: 10.5% | viability, T/C [13]: 79.9% | viability, T/C [14]: 66.6% | viability, T/C [15]: 33.2% | viability, T/C [16]: 15.2% | viability, T/C [17]: 13.2% | viability, T/C [18]: 12.1% | viability, T/C [19]: 84.1% | viability, T/C [20]: 75.4% | viability, T/C [21]: 23.4% | viability, T/C [22]: 12.8% | viability, T/C [23]: 12.6% | viability, T/C [24]: 10.4% | viability, T/C [25]: 77% | viability, T/C [26]: 60.4% | viability, T/C [27]: 34.8% | viability, T/C [28]: 15% | viability, T/C [29]: 15.3% | viability, T/C [30]: 19.6% | viability, T/C [31]: 68.7% | viability, T/C [32]: 68.3% | viability, T/C [33]: 36.5% | viability, T/C [34]: 18.2% | viability, T/C [35]: 14% | viability, T/C [36]: 15.6%
